target: T1, trypsin (Bos taurus, UniProt P00760); test: Determination of Trypsin-Inhibiting Activity (chromogenic substrate S-2222); assay type: biochemical; settings: inhibitor concentration giving 50% of ΔA/min (405 nm) without inhibitor; 33.3 μM S-2222, 0.1 M Tris-HCl pH 8.3, 37° C.; read-out: I50
T1 sequence (P00760 24-246): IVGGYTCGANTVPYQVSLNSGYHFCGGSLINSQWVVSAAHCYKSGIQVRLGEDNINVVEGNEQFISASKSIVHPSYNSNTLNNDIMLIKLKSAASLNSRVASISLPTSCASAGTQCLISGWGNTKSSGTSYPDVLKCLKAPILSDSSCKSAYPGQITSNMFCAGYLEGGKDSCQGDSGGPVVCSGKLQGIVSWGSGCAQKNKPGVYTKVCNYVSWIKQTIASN
Description: Trypsin-inhibiting activity of the arginine derivatives of this invention was determined by the method described below.
Determination of Trypsin-Inhibiting Activity
Trypsin activity is determined by measuring the rate of formation of para-nitroaniline from synthesized chromogenic substrate Jz-Ile-Glu(γ-OH and γ-OCH3)-Gly-Arg-pNA (S-2222)(benzoylisoleucylglutamyl(γ-OH:γ-OCH3 =1:1)glycylarginine p-nitroanilide) supplied by Kabi Diagnostica Inc. Three (3) ml of a reaction mixture containing 33.3 μM of S-2222 and 0.1 M Tris-HCl buffer solution (pH 8.3) is placed in a cell for spectrophotometry and the cell is placed in the thermostatic cell holder at 37° C. of a Hitachi 124 spectrophotometer. After the cell is kept at 37° C. for 3 minutes, 10 μl of a solution of trypsin dissolved in 0.001N HCl containing 0.05M CaCl2 is added, and increase in absorbance at 405 nm is continuously measured using a recorder to calculate ΔA/min at an initial portion. Various inhibitors in various concentrations are added and ΔA/min values are respectively measured. Data are plotted with the inhibitor concentration as abscissa and ΔA/min as ordinate. From the resulting graph the inhibitor concentrations which give ΔA/min corresponding to 50% of the ΔA/min value when no inhibitor is added are sought as I50.

SMILES	IC50 [nM]
N=C(N)NCCC[C@H](NS(=O)(=O)c1ccc2oc3ccccc3c2c1)C(=O)N1CCC(c2ccccc2)CC1 [compound 10]	2200
N=C(N)NCCC[C@H](NS(=O)(=O)c1cccc2ccccc12)C(=O)N1CCC(c2ccccc2)CC1 [compound 37]	11000
COc1ccc2ccc(S(=O)(=O)N[C@@H](CCCNC(=N)N)C(=O)N3CCC(c4ccccc4)CC3C(=O)O)cc2c1 (stereo partly shown) [compound 24]	400
COc1ccc2ccc(S(=O)(=O)N[C@@H](CCCNC(=N)N)C(=O)N3CCN(c4ccccc4OC)CC3)cc2c1 [compound 20]	800
COc1ccc(N2CCN(C(=O)[C@H](CCCNC(=N)N)NS(=O)(=O)c3ccc4ccc(OC)cc4c3)CC2)cc1 [compound 28]	2800
COc1ccc2ccc(S(=O)(=O)N[C@@H](CCCNC(=N)N)C(=O)N3CCN(c4cccc(Cl)c4)CC3)cc2c1 [compound 17]	380
COc1ccc2ccc(S(=O)(=O)N[C@@H](CCCNC(=N)N)C(=O)N3CCN(c4ccccc4C)CC3)cc2c1 [compound 22]	400
N=C(N)NCCC[C@H](NS(=O)(=O)c1ccc2ccc(O)cc2c1)C(=O)N1CCC(c2ccccc2)CC1 [compound 42]	37000
COc1ccc2ccc(S(=O)(=O)N[C@@H](CCCNC(=N)N)C(=O)N3CCC(c4ccccc4OC)CC3)cc2c1 [compound 39]	280
COc1cc2ccc(S(=O)(=O)N[C@@H](CCCNC(=N)N)C(=O)N3CCC(c4ccccc4)CC3)cc2cc1OC [Run No. 3]	2400
N=C(N)NCCC[C@H](NS(=O)(=O)c1ccc2ccccc2c1)C(=O)N1CCC(c2ccccc2)CC1 [compound 38]	3200
COc1ccc2ccc(S(=O)(=O)N[C@@H](CCCNC(=N)N)C(=O)N3CCN(c4ccc(Cl)cc4)CC3)cc2c1 [compound 16]	690
CC1CNc2c(cccc2S(=O)(=O)N[C@@H](CCCNC(=N)N)C(=O)N2CCC(c3ccccc3)CC2)C1 (stereo partly shown) [Run No. 1]	2100
COc1ccc2ccc(S(=O)(=O)N[C@@H](CCCNC(=N)N)C(=O)N3CC[C@@H](c4ccccc4)C[C@@H]3C(=O)O)cc2c1 [compound 56]	150
COc1ccc(C2CCN(C(=O)[C@H](CCCNC(=N)N)NS(=O)(=O)c3ccc4ccc(OC)cc4c3)CC2)cc1 [compound 52]	200
COc1ccc2ccc(S(=O)(=O)N[C@@H](CCCNC(=N)N)C(=O)N3CC[C@H](c4ccccc4)C[C@H]3C(=O)O)cc2c1 [compound 57]	1900
CCOC(=O)c1cc2cccc(S(=O)(=O)N[C@@H](CCCNC(=N)N)C(=O)N3CCC(c4ccccc4)CC3)c2cc1OC [Run No. 49]	2100
COc1cccc(C2CCN(C(=O)[C@H](CCCNC(=N)N)NS(=O)(=O)c3ccc4ccc(OC)cc4c3)CC2)c1 [compound 58]	750
COc1cccc2cccc(S(=O)(=O)N[C@@H](CCCNC(=N)N)C(=O)N3CCC(c4ccccc4)CC3)c12 [compound 36]	87000
N=C(N)NCCC[C@H](NS(=O)(=O)c1ccc2ccc(Cl)cc2c1)C(=O)N1CCC(c2ccccc2)CC1 [compound 48]	1100

SMILES	IC50 [nM]
COc1cc2ccc(S(=O)(=O)N[C@@H](CCCNC(=N)N)C(=O)N3CCN(c4ccccc4)CC3)cc2cc1OC [compound 9]	7800
COc1ccc2ccc(S(=O)(=O)N[C@@H](CCCNC(=N)N)C(=O)N3CCC(Cc4ccccc4)CC3)cc2c1 [compound 25]	600
COc1ccc2ccc(S(=O)(=O)N[C@@H](CCCNC(=N)N)C(=O)N3CCC(C(=O)Nc4ccccc4)CC3)cc2c1 [compound 33]	3400
COc1ccc2ccc(S(=O)(=O)N[C@@H](CCCNC(=N)N)C(=O)N3CCN(c4ccccc4Cl)CC3)cc2c1 [compound 18]	330
CCOC(=O)C1CC(c2ccccc2)CCN1C(=O)[C@H](CCCNC(=N)N)NS(=O)(=O)c1ccc2ccc(OC)cc2c1 (stereo partly shown) [Run No. 23]	650
Cc1ccc(S(=O)(=O)N[C@@H](CCCNC(=N)N)C(=O)N2CCN(c3ccccc3)CC2)cc1 [compound 8]	74000
CCOc1c(OC)ccc(S(=O)(=O)N[C@@H](CCCNC(=N)N)C(=O)N2CCC(c3ccccc3)CC2)c1OC [compound 19]	2400
COc1ccc2ccc(S(=O)(=O)N[C@@H](CCCNC(=N)N)C(=O)N3CCN(c4cc(Cl)cc(Cl)c4)CC3)cc2c1 [compound 45]	1000
COc1ccc2ccc(S(=O)(=O)N[C@@H](CCCNC(=N)N)C(=O)N3CCN(c4cccc(C(F)(F)F)c4)CC3)cc2c1 [compound 46]	1600
COc1ccc2ccc(S(=O)(=O)N[C@@H](CCCNC(=N)N)C(=O)N3CCN(c4ccccc4)CC3)cc2c1 [compound 7]	1500
Cc1ccc(S(=O)(=O)N[C@@H](CCCNC(=N)N)C(=O)N2CCC(c3ccccc3)CC2)cc1 [Run No. 5]	22000
COc1ccc2ccc(S(=O)(=O)N[C@@H](CCCNC(=N)N)C(=O)N3CCN(c4ccccc4O)CC3)cc2c1 [compound 55]	800
N=C(N)NCCC[C@H](NS(=O)(=O)c1ccc2c(c1)Cc1ccccc1-2)C(=O)N1CCC(c2ccccc2)CC1 [compound 11]	3200
COc1cc2c(S(=O)(=O)N[C@@H](CCCNC(=N)N)C(=O)N3CCC(c4ccccc4)CC3)cccc2cc1C(=O)O [compound 50]	450000
CC1CNc2c(cccc2S(=O)(=O)N[C@@H](CCCNC(=N)N)C(=O)N2CCN(c3ccccc3)CC2)C1 (stereo partly shown) [compound 6]	10000
Cc1cc2ccc(S(=O)(=O)N[C@@H](CCCNC(=N)N)C(=O)N3CCC(c4ccccc4)CC3)cc2cc1C [compound 32]	9000
COc1ccc2ccc(S(=O)(=O)N[C@@H](CCCNC(=N)N)C(=O)N3CCC(c4ccc(C)cc4)CC3)cc2c1 [compound 53]	370
COc1ccc2cc(S(=O)(=O)N[C@@H](CCCNC(=N)N)C(=O)N3CCC(c4ccccc4)CC3)ccc2c1 [compound 31]	41200
COc1ccc2ccc(S(=O)(=O)N[C@@H](CCCNC(=N)N)C(=O)N3CCC(C(C)=O)(c4ccccc4)CC3)cc2c1 [compound 27]	35000
COc1ccc2cc(S(=O)(=O)N[C@@H](CCCNC(=N)N)C(=O)N3CCC(c4ccccc4)CC3)cc(OC)c2c1 [compound 13]	2250

SMILES	IC50 [nM]
COc1ccc2ccc(S(=O)(=O)N[C@@H](CCCNC(=N)N)C(=O)N3CCC(c4ccccc4C)CC3)cc2c1 [compound 40]	400
N=C(N)NCCC[C@H](NS(=O)(=O)c1cccc2c(Cl)cccc12)C(=O)N1CCC(c2ccccc2)CC1 [compound 47]	2500
COc1ccc2ccc(S(=O)(=O)N[C@@H](CCCNC(=N)N)C(=O)N3CCC(c4cccc(C)c4)CC3)cc2c1 [compound 51]	300
COc1ccc2ccc(S(=O)(=O)N[C@@H](CCCNC(=N)N)C(=O)N3CCC(c4ccc(Cl)cc4)CC3)cc2c1 [compound 41]	460
COc1ccc2ccc(S(=O)(=O)N[C@@H](CCCNC(=N)N)C(=O)N3CCC(Oc4ccccc4)CC3)cc2c1 [compound 43]	25000
COc1ccc(S(=O)(=O)N[C@@H](CCCNC(=N)N)C(=O)N2CCC(c3ccccc3)CC2)c2ccccc12 [compound 29]	2200
N=C(N)NCCC[C@H](NS(=O)(=O)c1ccc2c(c1)CCCC2)C(=O)N1CCC(c2ccccc2)CC1 [compound 35]	6700
N=C(N)NCCC[C@H](NC(=O)c1cccc2ccccc12)C(=O)N1CCC(c2ccccc2)CC1 [compound 14]	395000
CCOC(=O)C1(c2ccccc2)CCN(C(=O)[C@H](CCCNC(=N)N)NS(=O)(=O)c2ccc3ccc(OC)cc3c2)CC1 [Run No. 54]	12000
COc1ccc2ccc(S(=O)(=O)N[C@@H](CCCNC(=N)N)C(=O)N3CCC(C#N)(c4ccccc4)CC3)cc2c1 [compound 30]	1300
N=C(N)NCCC[C@H](NS(=O)(=O)c1ccc2cc3c(cc2c1)OCCO3)C(=O)N1CCC(c2ccccc2)CC1 [compound 15]	6000
COc1ccc2ccc(S(=O)(=O)N[C@@H](CCCNC(=N)N)C(=O)N3CCN(c4ccc(F)cc4)CC3)cc2c1 [compound 26]	860
N=C(N)NCCC[C@H](NC(=O)c1ccc2ccccc2c1)C(=O)N1CCC(c2ccccc2)CC1 [compound 44]	110000
Cc1ccc2ccc(S(=O)(=O)N[C@@H](CCCNC(=N)N)C(=O)N3CCC(c4ccccc4)CC3)cc2c1 [compound 12]	1000
CCOc1ccc2ccc(S(=O)(=O)N[C@@H](CCCNC(=N)N)C(=O)N3CCC(c4ccccc4)CC3)cc2c1 [compound 21]	900
COc1cc2ccc(S(=O)(=O)N[C@@H](CCCNC(=N)N)C(=O)N3CCC(Cc4ccccc4)CC3)cc2cc1OC [Run No. 4]	3500
COc1ccc2ccc(S(=O)(=O)N[C@@H](CCCNC(=N)N)C(=O)N3CCC(c4ccccc4)CC3)cc2c1 [Run No. 2, 1-[N^2-(7-methoxy-2-naphthalenesulfonyl)-L-arginyl]-4-phenylpiperidine]	230
N=C(N)NCCC[C@H](NS(=O)(=O)c1cccc2c1CCCC2)C(=O)N1CCC(c2ccccc2)CC1 [compound 34]	7700

Source: patent US4764618A, “Arginine derivatives and pharmaceutically acceptable acid addition salts thereof” (Mitsubishi Chemical Industries Limited, priority 1984, dated 1988)
